Assay results taken from ChEMBL document CHEMBL4507268 (2021).

Columns and labels:
Settings in all cases: Compound concentration 1.0 uM
[1] = target: Mitogen-activated protein kinase kinase kinase kinase 5 (Homo sapiens) (UniProt Q9Y4K4)
[2] = target: Cyclin-dependent kinase 1/cyclin B (Homo sapiens) (UniProt P06493+P14635+Q8WWL7+O95067)
[3] = target: Transient receptor potential cation channel subfamily M member 7 (Homo sapiens) (UniProt Q96QT4)
[4] = target: Tyrosine-protein kinase Lyn (Homo sapiens) (UniProt P07948)
[5] = target: Serine/threonine-protein kinase 24 (Homo sapiens) (UniProt Q9Y6E0)
[6] = target: T1, Cyclin-dependent kinase-like 2 (Homo sapiens) (UniProt Q92772)
T1 sequence (whole entry): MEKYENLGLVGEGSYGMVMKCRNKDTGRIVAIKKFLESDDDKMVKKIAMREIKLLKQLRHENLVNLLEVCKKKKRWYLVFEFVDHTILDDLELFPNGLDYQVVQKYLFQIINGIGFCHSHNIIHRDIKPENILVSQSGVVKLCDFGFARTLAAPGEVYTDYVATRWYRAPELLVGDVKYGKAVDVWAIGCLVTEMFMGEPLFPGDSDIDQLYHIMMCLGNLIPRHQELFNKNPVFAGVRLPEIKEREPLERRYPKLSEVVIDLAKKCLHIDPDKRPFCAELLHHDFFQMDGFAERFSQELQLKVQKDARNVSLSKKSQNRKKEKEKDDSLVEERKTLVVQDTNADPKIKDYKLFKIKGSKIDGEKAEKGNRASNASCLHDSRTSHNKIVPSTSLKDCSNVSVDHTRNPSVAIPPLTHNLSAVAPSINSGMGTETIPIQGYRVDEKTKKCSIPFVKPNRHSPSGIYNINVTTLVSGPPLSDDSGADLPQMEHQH

[7] = target: Leucine-rich repeat serine/threonine-protein kinase 2 (Homo sapiens) (UniProt Q5S007)
[8] = target: Casein kinase II subunit alpha' (Homo sapiens) (UniProt P19784)
[9] = target: T2, Dual specificity protein kinase TTK (Homo sapiens) (UniProt P33981)
T2 sequence (whole entry): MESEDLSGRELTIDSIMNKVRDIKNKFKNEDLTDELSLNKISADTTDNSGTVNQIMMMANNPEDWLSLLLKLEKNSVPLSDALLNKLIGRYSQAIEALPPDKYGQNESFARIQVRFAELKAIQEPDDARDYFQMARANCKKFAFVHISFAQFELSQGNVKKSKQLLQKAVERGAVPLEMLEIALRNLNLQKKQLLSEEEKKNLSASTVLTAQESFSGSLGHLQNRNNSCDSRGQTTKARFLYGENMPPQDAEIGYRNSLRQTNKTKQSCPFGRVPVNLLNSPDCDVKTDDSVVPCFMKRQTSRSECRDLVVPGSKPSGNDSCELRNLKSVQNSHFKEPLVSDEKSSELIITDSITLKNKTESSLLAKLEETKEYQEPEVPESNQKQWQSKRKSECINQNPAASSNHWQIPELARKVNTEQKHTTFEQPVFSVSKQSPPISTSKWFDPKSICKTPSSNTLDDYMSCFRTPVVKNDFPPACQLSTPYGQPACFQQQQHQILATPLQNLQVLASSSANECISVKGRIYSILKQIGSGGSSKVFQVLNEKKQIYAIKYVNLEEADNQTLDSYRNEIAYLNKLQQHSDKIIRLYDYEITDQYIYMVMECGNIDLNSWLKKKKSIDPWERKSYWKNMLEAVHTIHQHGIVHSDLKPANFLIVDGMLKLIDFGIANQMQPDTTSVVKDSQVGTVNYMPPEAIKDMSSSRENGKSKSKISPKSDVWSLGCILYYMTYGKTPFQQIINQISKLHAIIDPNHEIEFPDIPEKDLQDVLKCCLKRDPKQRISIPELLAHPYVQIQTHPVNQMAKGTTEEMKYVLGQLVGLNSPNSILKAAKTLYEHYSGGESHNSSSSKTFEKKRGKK

[10] = target: Insulin-like growth factor 1 receptor (Homo sapiens) (UniProt P08069)
[11] = target: T3, Ephrin type-A receptor 3 (Homo sapiens) (UniProt P29320)
T3 sequence (whole entry): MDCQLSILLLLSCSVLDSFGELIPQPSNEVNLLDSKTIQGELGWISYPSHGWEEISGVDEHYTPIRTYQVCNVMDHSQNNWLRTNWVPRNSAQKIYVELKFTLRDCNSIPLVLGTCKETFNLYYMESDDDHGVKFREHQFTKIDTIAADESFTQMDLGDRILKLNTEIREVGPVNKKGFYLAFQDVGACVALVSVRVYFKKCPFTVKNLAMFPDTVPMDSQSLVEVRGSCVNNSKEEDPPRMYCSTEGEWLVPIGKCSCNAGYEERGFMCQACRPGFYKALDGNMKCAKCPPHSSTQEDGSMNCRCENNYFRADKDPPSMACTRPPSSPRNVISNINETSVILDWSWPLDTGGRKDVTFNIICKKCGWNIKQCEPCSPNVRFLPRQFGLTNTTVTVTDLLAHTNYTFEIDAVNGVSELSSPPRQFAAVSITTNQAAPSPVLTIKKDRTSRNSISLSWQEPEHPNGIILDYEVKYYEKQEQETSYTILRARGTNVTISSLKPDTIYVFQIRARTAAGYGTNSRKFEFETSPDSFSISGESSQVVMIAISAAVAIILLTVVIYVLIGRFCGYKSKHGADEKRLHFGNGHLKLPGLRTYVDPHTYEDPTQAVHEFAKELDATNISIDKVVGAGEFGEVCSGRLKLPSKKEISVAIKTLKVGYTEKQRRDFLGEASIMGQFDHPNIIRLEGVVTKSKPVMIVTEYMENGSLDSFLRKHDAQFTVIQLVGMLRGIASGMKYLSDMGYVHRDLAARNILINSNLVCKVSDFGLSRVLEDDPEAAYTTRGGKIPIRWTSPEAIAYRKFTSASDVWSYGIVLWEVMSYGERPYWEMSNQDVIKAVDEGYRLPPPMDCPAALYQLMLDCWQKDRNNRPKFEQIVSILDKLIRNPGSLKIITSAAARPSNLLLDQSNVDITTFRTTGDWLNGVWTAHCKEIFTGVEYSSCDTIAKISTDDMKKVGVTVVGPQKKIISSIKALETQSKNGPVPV

Measured: % residual kinase activity

Serine/threonine-protein kinase 24 (Homo sapiens), sequence (Q9Y6E0 whole entry, looked up): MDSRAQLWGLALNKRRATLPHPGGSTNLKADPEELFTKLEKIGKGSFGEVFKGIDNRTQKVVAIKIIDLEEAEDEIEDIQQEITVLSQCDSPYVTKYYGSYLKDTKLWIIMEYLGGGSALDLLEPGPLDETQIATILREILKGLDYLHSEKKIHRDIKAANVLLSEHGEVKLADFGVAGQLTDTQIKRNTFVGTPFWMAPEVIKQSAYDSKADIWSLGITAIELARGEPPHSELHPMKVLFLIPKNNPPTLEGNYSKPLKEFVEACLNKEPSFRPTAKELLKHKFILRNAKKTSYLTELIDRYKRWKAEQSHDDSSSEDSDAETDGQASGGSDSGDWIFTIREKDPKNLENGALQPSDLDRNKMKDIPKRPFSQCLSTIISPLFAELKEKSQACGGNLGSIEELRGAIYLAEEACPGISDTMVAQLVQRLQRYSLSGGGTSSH
Mitogen-activated protein kinase kinase kinase kinase 5 (Homo sapiens), sequence (Q9Y4K4 whole entry, looked up): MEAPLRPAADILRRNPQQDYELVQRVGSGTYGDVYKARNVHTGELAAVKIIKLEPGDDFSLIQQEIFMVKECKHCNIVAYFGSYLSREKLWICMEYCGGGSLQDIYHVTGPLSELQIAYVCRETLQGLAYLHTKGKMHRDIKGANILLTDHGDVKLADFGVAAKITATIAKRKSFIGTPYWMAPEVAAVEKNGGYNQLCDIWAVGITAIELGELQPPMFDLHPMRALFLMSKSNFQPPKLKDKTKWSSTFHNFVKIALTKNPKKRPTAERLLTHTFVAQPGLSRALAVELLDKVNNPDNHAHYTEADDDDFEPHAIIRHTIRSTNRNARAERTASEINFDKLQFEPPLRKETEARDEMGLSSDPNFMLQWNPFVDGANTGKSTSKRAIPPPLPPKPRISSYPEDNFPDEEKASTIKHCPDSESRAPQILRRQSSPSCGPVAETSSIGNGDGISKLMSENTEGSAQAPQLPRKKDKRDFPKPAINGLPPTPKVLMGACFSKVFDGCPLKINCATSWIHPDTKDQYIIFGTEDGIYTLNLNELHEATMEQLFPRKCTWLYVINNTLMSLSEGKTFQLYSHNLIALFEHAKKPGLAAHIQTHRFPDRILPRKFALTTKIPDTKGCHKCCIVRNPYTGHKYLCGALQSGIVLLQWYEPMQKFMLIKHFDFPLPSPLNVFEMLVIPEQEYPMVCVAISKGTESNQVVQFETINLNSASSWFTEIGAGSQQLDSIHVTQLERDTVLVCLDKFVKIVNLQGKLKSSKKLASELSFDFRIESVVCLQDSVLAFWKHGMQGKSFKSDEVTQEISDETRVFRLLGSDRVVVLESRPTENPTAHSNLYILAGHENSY
Transient receptor potential cation channel subfamily M member 7 (Homo sapiens), sequence (Q96QT4 whole entry): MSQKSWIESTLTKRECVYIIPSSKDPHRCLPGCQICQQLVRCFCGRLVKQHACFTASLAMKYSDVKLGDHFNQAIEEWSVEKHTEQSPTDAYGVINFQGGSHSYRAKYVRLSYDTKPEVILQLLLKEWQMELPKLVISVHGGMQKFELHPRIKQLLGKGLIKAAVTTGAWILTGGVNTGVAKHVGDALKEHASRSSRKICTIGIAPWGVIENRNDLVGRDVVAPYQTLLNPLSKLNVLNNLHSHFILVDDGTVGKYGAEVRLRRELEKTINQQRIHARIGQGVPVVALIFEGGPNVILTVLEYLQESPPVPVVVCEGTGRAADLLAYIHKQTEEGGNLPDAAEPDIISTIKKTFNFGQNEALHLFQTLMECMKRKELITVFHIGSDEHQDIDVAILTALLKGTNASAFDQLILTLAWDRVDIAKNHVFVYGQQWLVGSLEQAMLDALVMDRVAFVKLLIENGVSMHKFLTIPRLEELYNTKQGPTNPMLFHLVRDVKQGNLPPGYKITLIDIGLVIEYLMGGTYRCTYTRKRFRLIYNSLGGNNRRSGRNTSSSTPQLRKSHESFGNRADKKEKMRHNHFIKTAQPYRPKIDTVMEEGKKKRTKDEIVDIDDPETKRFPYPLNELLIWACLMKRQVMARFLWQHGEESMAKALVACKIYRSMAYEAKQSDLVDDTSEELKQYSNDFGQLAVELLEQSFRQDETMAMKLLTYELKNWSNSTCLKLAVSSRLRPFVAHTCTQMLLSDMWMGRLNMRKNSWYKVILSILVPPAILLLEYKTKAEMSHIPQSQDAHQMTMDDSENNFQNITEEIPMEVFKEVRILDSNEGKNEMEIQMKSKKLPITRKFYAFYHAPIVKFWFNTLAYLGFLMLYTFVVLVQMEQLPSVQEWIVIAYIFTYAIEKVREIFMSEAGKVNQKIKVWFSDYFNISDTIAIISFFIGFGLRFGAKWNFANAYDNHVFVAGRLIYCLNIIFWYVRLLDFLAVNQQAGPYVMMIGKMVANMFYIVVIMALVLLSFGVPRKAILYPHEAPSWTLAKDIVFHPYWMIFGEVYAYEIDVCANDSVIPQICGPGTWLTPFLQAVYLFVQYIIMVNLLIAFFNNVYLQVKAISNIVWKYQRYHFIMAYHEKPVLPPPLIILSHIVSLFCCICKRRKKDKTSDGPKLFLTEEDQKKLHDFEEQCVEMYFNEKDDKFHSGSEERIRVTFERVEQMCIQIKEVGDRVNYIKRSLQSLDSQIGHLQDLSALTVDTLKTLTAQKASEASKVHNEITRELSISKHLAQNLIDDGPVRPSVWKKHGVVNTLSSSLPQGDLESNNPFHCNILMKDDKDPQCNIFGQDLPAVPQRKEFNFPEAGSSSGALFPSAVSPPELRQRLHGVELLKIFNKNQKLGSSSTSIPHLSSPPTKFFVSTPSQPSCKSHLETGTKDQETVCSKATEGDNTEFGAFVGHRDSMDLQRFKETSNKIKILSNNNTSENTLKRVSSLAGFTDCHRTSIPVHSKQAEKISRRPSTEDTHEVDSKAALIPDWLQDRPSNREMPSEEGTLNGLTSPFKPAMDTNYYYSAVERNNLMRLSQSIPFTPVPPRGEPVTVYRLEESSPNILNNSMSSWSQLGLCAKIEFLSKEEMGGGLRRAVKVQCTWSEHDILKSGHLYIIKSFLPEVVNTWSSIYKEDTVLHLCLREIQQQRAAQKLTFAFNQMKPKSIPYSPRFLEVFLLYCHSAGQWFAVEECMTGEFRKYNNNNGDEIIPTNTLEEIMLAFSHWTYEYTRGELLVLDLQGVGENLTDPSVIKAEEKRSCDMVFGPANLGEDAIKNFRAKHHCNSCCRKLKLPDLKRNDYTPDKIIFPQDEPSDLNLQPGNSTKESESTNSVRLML
Casein kinase II subunit alpha' (Homo sapiens), sequence (P19784 whole entry, looked up): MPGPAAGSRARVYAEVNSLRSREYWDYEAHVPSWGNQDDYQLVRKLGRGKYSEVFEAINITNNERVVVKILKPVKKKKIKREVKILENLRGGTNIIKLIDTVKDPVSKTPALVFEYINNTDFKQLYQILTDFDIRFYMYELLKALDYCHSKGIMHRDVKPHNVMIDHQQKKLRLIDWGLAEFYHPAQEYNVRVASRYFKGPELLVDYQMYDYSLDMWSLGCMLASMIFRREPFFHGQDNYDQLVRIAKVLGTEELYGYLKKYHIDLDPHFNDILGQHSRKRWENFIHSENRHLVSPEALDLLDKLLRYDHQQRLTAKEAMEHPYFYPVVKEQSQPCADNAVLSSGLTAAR
Tyrosine-protein kinase Lyn (Homo sapiens), sequence (P07948 2-512 limits assumed): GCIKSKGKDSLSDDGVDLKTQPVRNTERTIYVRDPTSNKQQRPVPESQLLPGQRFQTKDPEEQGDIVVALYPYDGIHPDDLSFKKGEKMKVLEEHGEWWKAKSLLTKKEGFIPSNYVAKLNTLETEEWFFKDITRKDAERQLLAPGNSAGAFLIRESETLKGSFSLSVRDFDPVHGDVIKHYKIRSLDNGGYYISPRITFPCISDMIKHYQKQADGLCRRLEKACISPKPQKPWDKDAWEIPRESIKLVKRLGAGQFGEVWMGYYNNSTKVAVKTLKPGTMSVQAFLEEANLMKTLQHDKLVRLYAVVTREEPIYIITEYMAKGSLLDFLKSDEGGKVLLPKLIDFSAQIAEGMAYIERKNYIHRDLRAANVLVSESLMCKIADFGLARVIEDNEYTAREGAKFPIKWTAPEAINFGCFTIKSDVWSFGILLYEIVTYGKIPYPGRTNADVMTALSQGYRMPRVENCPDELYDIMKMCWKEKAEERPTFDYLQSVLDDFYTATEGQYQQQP

CN1CCN(c2cnc3c(C4CCN(C(=O)c5ccc(OC(F)(F)F)cc5N)CC4)ncnc3c2)CC1 [BAY-885]
inactive: [1] 99% | [2] 101% | [3] 122% | [4] 100% | [5] 99% | [6] 96% | [7] 102% | [8] 94% | [9] 93% | [10] 90% | [11] 86%
